Test results published in patent publication US4956461A, “Desamino-aminopterin and -methotrexate” (priority 1989, dated 1990).
Where two headings read alike, the source gives them in different places. Values belong to the compound of their own block, whether it stands above or below them.

How the values were obtained:
WI-L2 cells = assay: Growth inhibition of cultured human WI-L2 tumor cells; format: cell-based
carboxypeptidase G1 = assay: Glutamate hydrolysis by carboxypeptidase G1 (HPLC); format: biochemical; details: for disappearance of starting material (glutamate hydrolysis): room temperature, 1M NaOAc, ZnCl2, in less than 15 min
L1210 cells [1] = assay: Reversal test: effect of thymidine and hypoxanthine on growth of L1210 cells in presence of compound; format: cell-based, murine; details: Mus musculus
Experimental: Thymidine (dThd) and hypoxanthine (Hx) were added at concentrations of 10 μM and 100 μM, respectively.

L1210 cells [2] = assay: Growth inhibition of cultured murine L1210 tumor cells; format: cell-based
[3] = Stability in solution (base, pH 7.4 buffer, NH4HCO3 eluates); format: physicochemical; details: for time stable in pH 7.4 phosphate buffer / half-life: room temperature, pH 7.4 phosphate buffer; for half-life: read-out: t1/2 (UV changes suggestive of pyrimidine ring cleavage) (converted); for stability of 3% NH4HCO3 eluates: overnight in the refrigerator
Text: Critically important to the successful purification of the end products of Examples 3 and 4 on diethylamino-ethylcellulose was that the fractions were freeze dried as soon as possible after collection.

[4] = biological target: T1, dihydrofolate reductase (DHFR) (Homo sapiens, UniProt P00374); assay: Inhibition of purified dihydrofolate reductase (DHFR) from human leukemic lymphoblasts (WI-L2 cells); format: biochemical
T1 construct: endogenous in cells; host or cells: MTX-resistant WI-L2 human leukemic lymphoblasts
T1 sequence (P00374 1-187): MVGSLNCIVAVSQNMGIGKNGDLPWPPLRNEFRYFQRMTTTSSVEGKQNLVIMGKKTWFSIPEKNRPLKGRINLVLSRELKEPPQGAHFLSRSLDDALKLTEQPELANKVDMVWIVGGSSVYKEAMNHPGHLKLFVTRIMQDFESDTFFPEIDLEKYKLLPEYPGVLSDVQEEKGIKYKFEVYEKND
Text: DHFR was isolated from MTXresistant WIL2 cells and purified by affinity

[5] = test system: DHFR, threonine residue replaced by valine; details: threonine to valine mutant; cited from earlier work
[6] = test system: E. coli dihydrofolate reductase (DHFR), aspartic acid replaced with serine; details: cited from earlier work
[7] = WIL2, read-out: Cells IC50, WI-L2
[8] = + 10 μM thymidine and 100 μM hypoxanthine, read-out: IC50, + dThd and Hx
[9] = + 10 μM thymidine, read-out: IC50, + dThd
[10] = + 100 μM hypoxanthine, read-out: IC50, + Hx
[11] = read-out: IC50, standard medium
[12] = WIL2, read-out: IC50, growth of cultured tumor cells
[13] = Mus musculus, L1210, read-out: Cells IC50, L1210
[14] = Mus musculus, L1210, read-out: IC50, growth of cultured tumor cells

Structure (SMILES): Nc1nc(N)c2nc(CNc3ccc(C(=O)N[C@@H](CCC(=O)O)C(=O)O)cc3)cnc2n1 [AMT, aminopterin]
- IC50 (WI-L2 cells; [7]): 7.1 nM

Structure (SMILES): CN(Cc1cnc2nc(N)nc(N)c2n1)c1ccc(C(=O)N[C@H](CCC(=O)O)C(=O)O)cc1 [D MTX, reference compound]
- cleavage by carboxypeptidase G1 (carboxypeptidase G1; identical conditions): resistant

Structure (SMILES): Nc1ncnc2ncc(CNc3ccc(C(=O)N[C@@H](CCC(=O)O)C(=O)O)cc3)nc12 [Example 1, 2-desamino-aminopterin]
- IC50 (L1210 cells [1]; [8]): > 100000 nM
- IC50 (L1210 cells [1]; [9]): 160 nM
- IC50 (L1210 cells [1]; [10]): 260 nM
- IC50 (L1210 cells [1]; [11]): 82 nM
- IC50 (WI-L2 cells; [7]): 81 nM
- IC50 (WI-L2 cells; [12]): 30 to 80 nM
- IC50 (L1210 cells [2]; [13]): 82 nM
- IC50 (L1210 cells [2]; [14]): 30 to 80 nM
- disappearance of starting material (glutamate hydrolysis) (carboxypeptidase G1): > 95%
- stability in 0.1 N NaOH by HPLC [3]: rapid appearance of new peaks indicating a chemical reaction
- time stable in pH 7.4 phosphate buffer [3]: at least 24 h
- half-life [3]: ~72 h

Structure (SMILES): Cc1nc(N)c2nc(CNc3ccc(C(=O)N[C@@H](CCC(=O)O)C(=O)O)cc3)cnc2n1 [Example 2, 2-desamino-2-methyl-aminopterin]
- IC50 (L1210 cells [1]; [8]): > 100000 nM
- IC50 (L1210 cells [1]; [9]): 130 nM
- IC50 (L1210 cells [1]; [10]): 160 nM
- IC50 (L1210 cells [1]; [11]): 42 nM
- IC50 (WI-L2 cells; [7]): 28 nM
- IC50 (WI-L2 cells; [12]): 30 to 80 nM
- IC50 (L1210 cells [2]; [13]): 42 nM
- IC50 (L1210 cells [2]; [14]): 30 to 80 nM
- IC50 [4]: > 50000 nM
- disappearance of starting material (glutamate hydrolysis) (carboxypeptidase G1): > 95%
- stability in 0.1 N NaOH by HPLC [3]: rapid appearance of new peaks indicating a chemical reaction
- time stable in pH 7.4 phosphate buffer [3]: at least 24 h
- half-life [3]: ~72 h

Structure (SMILES): CN(Cc1cnc2ncnc(N)c2n1)c1ccc(C(=O)N[C@@H](CCC(=O)O)C(=O)O)cc1 [Example 3]
- IC50 [4]: 5800 nM
- stability of 3% NH4HCO3 eluates [3]: extensive decomposition occurred

- IC50 ([4]; purified DHFR from MTX-resistant WI-L2 cells, read-out: DHFR IC50): > 20000 nM
- stability of 3% NH4HCO3 eluates [3]: extensive decomposition occurred
Structure (SMILES): Cc1nc(N)c2nc(CN(C)c3ccc(C(=O)N[C@@H](CCC(=O)O)C(=O)O)cc3)cnc2n1 [Example 4]

Structure (SMILES): CN(Cc1cnc2nc(N)nc(N)c2n1)c1ccc(C(=O)N[C@@H](CCC(=O)O)C(=O)O)cc1 [MTX, methotrexate]
- IC50 (WI-L2 cells; WIL2, one figure stated for WI-L2 and L1210 together, here WI-L2, read-out: IC50, growth of cultured tumor cells): 10 nM
- IC50 (WI-L2 cells; [7]): 13 nM
- IC50 (L1210 cells [2]; Mus musculus, L1210; read-out: Cells IC50, L1210): 9 nM
- IC50 (L1210 cells [2]; Mus musculus; one figure stated for WI-L2 and L1210 together; here L1210; read-out: IC50, growth of cultured tumor cells): 10 nM
- decrease in the KD for MTX [5]: 25 fold
- increase in the KD for MTX binding ([6]; aspartic acid to serine mutant of E. coli DHFR, equilibrium dialysis): 3000 fold
- decrease in the binding energy ([6]; aspartic acid to serine mutant): 4.4 kcal/mol
